Columns and labels:
Assay type in all cases: in vivo
[1] = tested on: blackgrass (Alopecurus myosuroides); experiment: Test C greenhouse herbicide test, pre- and postemergence
Excerpt: (§1) Seeds of plant species selected from blackgrass (Alopecurus myosuroides), ryegrass, Italian (Italian ryegrass, Lolium multiflorum), wheat (winter wheat, Triticum aestivum), galium (catchweed bedstraw, Galium aparine), corn (Zea mays), large crabgrass, large (large crabgrass, Digitaria sanguinalis), foxtail, giant (giant foxtail, Setaria faberii), johnsongrass (Sorghum halepense), lambsquarters (Chenopodium album), morningglory (Ipomoea coccinea), nutsedge, yellow (yellow nutsedge, Cyperus esculentus), pigweed (Amaranthus retroflexus), ragweed (common ragweed, Ambrosia elatior), soybean (Glycine max), barnyardgrass (Echinochloa crus-galli), oilseed rape (Brassica napus), waterhemp (common waterhemp, Amaranthus rudis), and velvetleaf (Abutilon theophrasti) were planted into a blend of loam soil and sand and treated preemergence with test chemicals formulated in a non-phytotoxic solvent mixture which included a surfactant.
(§2) At the same time, plants selected from these crop and weed species and also chickweed (common chickweed, Stellaria media), kochia (Kochia scoparia), and oat, wild (wild oat, Avena fatua), were planted in pots containing Redi-Earth® planting medium (Scotts Company, 14111 Scottslawn Road, Marysville, Ohio 43041) comprising spaghnum peat moss, vermiculite, wetting agent and starter nutrients and treated with postemergence applications of test chemicals formulated in the same manner. Plants ranged in height from 2 to 18 cm (1- to 4-leaf stage) for postemergence treatments. Treated plants and controls were maintained in a greenhouse for 13 to 15 d, after which time all species were compared to controls and visually evaluated. Plant response ratings, summarized in Table C, are based on a scale of 0 to 100 where 0 is no effect and 100 is complete control. A dash (-) response means no test result.

corn (Zea mays) = experiment: as above
Excerpt: as §1, §2

[2] = tested on: crabgrass, large (large crabgrass, Digitaria sanguinalis); experiment: as above
Excerpt: as §1, §2

[3] = tested on: foxtail, giant (giant foxtail, Setaria faberii); experiment: as above
Excerpt: as §1, §2

[4] = tested on: johnsongrass (Sorghum halepense); experiment: as above
Excerpt: as §1, §2

[5] = tested on: lambsquarters (Chenopodium album); experiment: as above
Excerpt: as §1, §2

[6] = tested on: morningglory (Ipomoea coccinea); experiment: as above
Excerpt: as §1, §2

[7] = tested on: oilseed rape (Brassica napus); experiment: as above
Excerpt: as §1, §2

[8] = tested on: pigweed (Amaranthus retroflexus); experiment: as above
Excerpt: as §1, §2

[9] = tested on: ragweed (common ragweed, Ambrosia elatior); experiment: as above
Excerpt: as §1, §2

[10] = tested on: ryegrass, Italian (Italian ryegrass, Lolium multiflorum); experiment: as above
Excerpt: as §1, §2

soybean (Glycine max) = experiment: as above
Excerpt: as §1, §2

[11] = tested on: velvetleaf (Abutilon theophrasti); experiment: as above
Excerpt: as §1, §2

[12] = tested on: waterhemp (common waterhemp, Amaranthus rudis); experiment: as above
Excerpt: as §1, §2

kochia (Kochia scoparia) = experiment: Test C greenhouse herbicide test, postemergence
Method in brief: (§3)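 Postemergence foliar treatment, 1- to 4-leaf stage (2–18 cm), peat/vermiculite medium; greenhouse 13–15 d; visual rating vs controls, 0 = no effect, 100 = complete control; dash = no result.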

[13] = tested on: oat, wild (wild oat, Avena fatua); experiment: Test C greenhouse herbicide test, postemergence
Method in brief: as §3

[14] = Postemergence, 31 g ai/ha, 0 to 100 scale (0 no effect, 100 complete control)
[15] = Postemergence, 125 g ai/ha, scale 0 to 100, 0 is no effect, 100 is complete control
[16] = Postemergence, 250 g ai/ha, scale 0 to 100, 0 no effect, 100 complete control, 13 to 15 d
[17] = postemergence, 62 g ai/ha, scale 0 to 100, 0 no effect, 100 complete control

Cc1ccc2ccccc2c1-c1c(O)cnn(C)c1=O [Compound 56]
Blackgrass plant response rating [1, 14]: 0 | Plant response rating, Blackgrass [1, 15]: 5 | Plant response rating, Blackgrass [1, 16]: 40 | Blackgrass plant response rating [1, 17]: 5 | Corn plant response rating (corn (Zea mays); [14]): 0 | Plant response rating, Corn (corn (Zea mays); [15]): 0 | Plant response rating, Corn (corn (Zea mays); [16]): 0 | Corn plant response rating (corn (Zea mays); [17]): 0 | Crabgrass, Large plant response rating [2, 14]: 0 | Plant response rating, Crabgrass, Large [2, 15]: 5 | Plant response rating, Crabgrass, Large [2, 16]: 20 | Crabgrass, Large plant response rating [2, 17]: 5 | Foxtail, Giant plant response rating [3, 14]: 0 | Plant response rating, Foxtail, Giant [3, 15]: 0 | Plant response rating, Foxtail, Giant [3, 16]: 50 | Foxtail, Giant plant response rating [3, 17]: 0 | Johnsongrass plant response rating [4, 14]: 0 | Plant response rating, Johnsongrass [4, 15]: 5 | Plant response rating, Johnsongrass [4, 16]: 10 | Johnsongrass plant response rating [4, 17]: 0 | Lambsquarters plant response rating [5, 14]: 0 | Plant response rating, Lambsquarters [5, 15]: 85 | Plant response rating, Lambsquarters [5, 16]: 85 | Lambsquarters plant response rating [5, 17]: 50 | Morningglory plant response rating [6, 14]: 35 | Plant response rating, Morningglory [6, 15]: 50 | Plant response rating, Morningglory [6, 16]: 50 | Morningglory plant response rating [6, 17]: 50 | Oilseed Rape plant response rating [7, 14]: 0 | Plant response rating, Oilseed Rape [7, 15]: 0 | Plant response rating, Oilseed Rape [7, 16]: 0 | Oilseed Rape plant response rating [7, 17]: 0 | Pigweed plant response rating [8, 14]: 80 | Plant response rating, Pigweed [8, 15]: 85 | Plant response rating, Pigweed [8, 16]: 90 | Pigweed plant response rating [8, 17]: 75 | Ragweed plant response rating [9, 14]: 0 | Plant response rating, Ragweed [9, 15]: 60 | Plant response rating, Ragweed [9, 16]: 60 | Ragweed plant response rating [9, 17]: 0 | Ryegrass, Italian plant response rating [10, 14]: 40 | Plant response rating, Ryegrass, Italian [10, 15]: 65 | Plant response rating, Ryegrass, Italian [10, 16]: 90 | Ryegrass, Italian plant response rating [10, 17]: 60 | Soybean plant response rating (soybean (Glycine max); [14]): 0 | Plant response rating, Soybean (soybean (Glycine max); [15]): 0 | Plant response rating, Soybean (soybean (Glycine max); [16]): 0 | Soybean plant response rating (soybean (Glycine max); [17]): 0 | Velvetleaf plant response rating [11, 14]: 0 | Plant response rating, Velvetleaf [11, 15]: 15 | Plant response rating, Velvetleaf [11, 16]: 70 | Velvetleaf plant response rating [11, 17]: 0 | Waterhemp plant response rating [12, 14]: 55 | Plant response rating, Waterhemp [12, 15]: 95 | Plant response rating, Waterhemp [12, 16]: 90 | Waterhemp plant response rating [12, 17]: 75 | Kochia plant response rating (kochia (Kochia scoparia); [14]): 70 | Plant response rating, Kochia (kochia (Kochia scoparia); [15]): 90 | Plant response rating, Kochia (kochia (Kochia scoparia); [16]): 100 | Kochia plant response rating (kochia (Kochia scoparia); [17]): 90 | Oat, Wild plant response rating [13, 14]: 5 | Plant response rating, Oat, Wild [13, 15]: 20 | Plant response rating, Oat, Wild [13, 16]: 40 | Oat, Wild plant response rating [13, 17]: 10

— patent US10597388B2, “Pyridazinone herbicides” (FMC CORPORATION, priority 2014, dated 2020)
